According to patent publication US12077503B2, “Substituted cyclic amides and their use as herbicides” (FMC CORPORATION, priority 2015, dated 2024):

Experiments:
Type in all cases: in vivo
[1] = tested on: barnyardgrass (Echinochloa crus-galli); assay: Test G Pre-Emergence Protocol; conditions: Echinochloa crus-galli, pre-emergence, 312 h, evaluated after 13 days; for pest or weed control at 15.625 g/ha: 15.625 g ai/ha; for pest or weed control at 15.625 g/ha / pest or weed control at 250 g/ha: read-out: Barnyardgrass damage rating (100=total damage to plant; 0=no damage to plant); for pest or weed control at 62.5 g/ha: 62.5 g ai/ha, 100=total damage to plant, 0=no damage to plant, read-out: Barnyardgrass damage rating; for pest or weed control at 250 g/ha: 250 g ai/ha
Summary of the method: (§1)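 Seeds were sown in standard soil and kept one day in a glasshouse (24/16° C day/night, 14 h light, 65% humidity), then sprayed with compound in acetone/water (50:50) containing 0.5% Tween 20 at 15.625, 62.5 or 250 g/ha. Damage was scored after 13 days (0 = none, 100 = total).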

corn (Zea mays) [2] = assay: Test G Pre-Emergence Protocol; conditions: Zea mays, pre-emergence, 312 h, evaluated after 13 days; for plant injury at 15.625 g/ha: 15.625 g ai/ha; for plant injury at 15.625 g/ha / plant injury at 250 g/ha: read-out: Corn damage rating (100=total damage to plant; 0=no damage to plant); for plant injury at 62.5 g/ha: 62.5 g ai/ha, 100=total damage to plant, 0=no damage to plant, read-out: Corn damage rating; for plant injury at 250 g/ha: 250 g ai/ha
Summary of the method: as §1

[3] = tested on: giant foxtail (Setaria faberi); assay: Test G Pre-Emergence Protocol; conditions: Setaria faberi, pre-emergence, 312 h, evaluated after 13 days; for pest or weed control at 15.625 g/ha: 15.625 g ai/ha; for pest or weed control at 15.625 g/ha / pest or weed control at 250 g/ha: read-out: Foxtail, Giant damage rating (100=total damage to plant; 0=no damage to plant); for pest or weed control at 62.5 g/ha: 62.5 g ai/ha, 100=total damage to plant, 0=no damage to plant, read-out: Foxtail, Giant damage rating; for pest or weed control at 250 g/ha: 250 g ai/ha
Summary of the method: as §1

[4] = tested on: ivy-leaved morning glory (Ipomoea hederacea); assay: Test G Pre-Emergence Protocol; conditions: Ipomoea, pre-emergence, 312 h, evaluated after 13 days; for pest or weed control at 15.625 g/ha: 15.625 g ai/ha; for pest or weed control at 15.625 g/ha / pest or weed control at 250 g/ha: read-out: Morningglory, Ivy-leaved damage rating (100=total damage to plant; 0=no damage to plant); for pest or weed control at 62.5 g/ha: 62.5 g ai/ha, 100=total damage to plant, 0=no damage to plant, read-out: Morningglory, Ivy-leaved damage rating; for pest or weed control at 250 g/ha: 250 g ai/ha
Summary of the method: as §1

[5] = tested on: redroot pigweed (Amaranthus retroflexus); assay: Test G Pre-Emergence Protocol; conditions: Amaranthus retroflexus, pre-emergence, 312 h, evaluated after 13 days; for pest or weed control at 15.625 g/ha: 15.625 g ai/ha; for pest or weed control at 15.625 g/ha / pest or weed control at 250 g/ha: read-out: Pigweed, Redroot damage rating (100=total damage to plant; 0=no damage to plant); for pest or weed control at 62.5 g/ha: 62.5 g ai/ha, 100=total damage to plant, 0=no damage to plant, read-out: Pigweed, Redroot damage rating; for pest or weed control at 250 g/ha: 250 g ai/ha
Summary of the method: as §1

[6] = tested on: velvetleaf (Abutilon theophrasti); assay: Test G Pre-Emergence Protocol; conditions: Abutilon theophrasti, pre-emergence, 312 h, evaluated after 13 days; for pest or weed control at 15.625 g/ha: 15.625 g ai/ha; for pest or weed control at 15.625 g/ha / pest or weed control at 250 g/ha: read-out: Velvetleaf damage rating (100=total damage to plant; 0=no damage to plant); for pest or weed control at 62.5 g/ha: 62.5 g ai/ha, 100=total damage to plant, 0=no damage to plant, read-out: Velvetleaf damage rating; for pest or weed control at 250 g/ha: 250 g ai/ha
Summary of the method: as §1

[7] = tested on: barnyardgrass (Echinochloa crus-galli); assay: Test G Post-Emergence Protocol; conditions: Echinochloa crus-galli, post-emergence, 312 h, read-out: Barnyardgrass damage rating; for pest or weed control at 15.625 g/ha: 15.625 g ai/ha, evaluated after 13 days (100=total damage to plant; 0=no damage to plant); for pest or weed control at 62.5 g/ha: 62.5 g ai/ha; for pest or weed control at 62.5 g/ha / pest or weed control at 250 g/ha: evaluated after 13 days, 100=total damage to plant, 0=no damage to plant; for pest or weed control at 250 g/ha: 250 g ai/ha
Summary of the method: (§2)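 Pot-grown seedlings, 8 days old, raised in a glasshouse at 24/16 °C day/night with 14 h light and 65% humidity, were sprayed post-emergence with test compound in acetone/water (50:50) plus 0.5% Tween 20 at 15.625, 62.5 or 250 g/ha. Damage was scored visually 13 days later on a 0–100 scale (100 = total damage).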

corn (Zea mays) [8] = assay: Test G Post-Emergence Protocol; conditions: Zea mays, post-emergence, 312 h, read-out: Corn damage rating; for plant injury at 15.625 g/ha: 15.625 g ai/ha, evaluated after 13 days (100=total damage to plant; 0=no damage to plant); for plant injury at 62.5 g/ha: 62.5 g ai/ha; for plant injury at 62.5 g/ha / plant injury at 250 g/ha: evaluated after 13 days, 100=total damage to plant, 0=no damage to plant; for plant injury at 250 g/ha: 250 g ai/ha
Summary of the method: as §2

[9] = tested on: giant foxtail (Setaria faberi); assay: Test G Post-Emergence Protocol; conditions: Setaria faberi, post-emergence, 312 h, read-out: Foxtail, Giant damage rating; for pest or weed control at 15.625 g/ha: 15.625 g ai/ha, evaluated after 13 days (100=total damage to plant; 0=no damage to plant); for pest or weed control at 62.5 g/ha: 62.5 g ai/ha; for pest or weed control at 62.5 g/ha / pest or weed control at 250 g/ha: evaluated after 13 days, 100=total damage to plant, 0=no damage to plant; for pest or weed control at 250 g/ha: 250 g ai/ha
Summary of the method: as §2

[10] = tested on: ivy-leaved morning glory (Ipomoea hederacea); assay: Test G Post-Emergence Protocol; conditions: Ipomoea, post-emergence, 312 h, read-out: Morningglory, Ivy-leaved damage rating; for pest or weed control at 15.625 g/ha: 15.625 g ai/ha, evaluated after 13 days (100=total damage to plant; 0=no damage to plant); for pest or weed control at 62.5 g/ha: 62.5 g ai/ha; for pest or weed control at 62.5 g/ha / pest or weed control at 250 g/ha: evaluated after 13 days, 100=total damage to plant, 0=no damage to plant; for pest or weed control at 250 g/ha: 250 g ai/ha
Summary of the method: as §2

[11] = tested on: redroot pigweed (Amaranthus retroflexus); assay: Test G Post-Emergence Protocol; conditions: Amaranthus retroflexus, post-emergence, 312 h, read-out: Pigweed, Redroot damage rating; for pest or weed control at 15.625 g/ha: 15.625 g ai/ha, evaluated after 13 days (100=total damage to plant; 0=no damage to plant); for pest or weed control at 62.5 g/ha: 62.5 g ai/ha; for pest or weed control at 62.5 g/ha / pest or weed control at 250 g/ha: evaluated after 13 days, 100=total damage to plant, 0=no damage to plant; for pest or weed control at 250 g/ha: 250 g ai/ha
Summary of the method: as §2

[12] = tested on: velvetleaf (Abutilon theophrasti); assay: Test G Post-Emergence Protocol; conditions: Abutilon theophrasti, post-emergence, 312 h, read-out: Velvetleaf damage rating; for pest or weed control at 15.625 g/ha: 15.625 g ai/ha, evaluated after 13 days (100=total damage to plant; 0=no damage to plant); for pest or weed control at 62.5 g/ha: 62.5 g ai/ha; for pest or weed control at 62.5 g/ha / pest or weed control at 250 g/ha: evaluated after 13 days, 100=total damage to plant, 0=no damage to plant; for pest or weed control at 250 g/ha: 250 g ai/ha
Summary of the method: as §2

Structure (SMILES) | pest or weed control at 15.625 g/ha [1] [%] | pest or weed control at 62.5 g/ha [1] [%] | pest or weed control at 250 g/ha [1] [%] | plant injury at 15.625 g/ha (corn (Zea mays) [2]) [%] | plant injury at 62.5 g/ha (corn (Zea mays) [2]) [%] | plant injury at 250 g/ha (corn (Zea mays) [2]) [%] | pest or weed control at 15.625 g/ha [3] [%] | pest or weed control at 62.5 g/ha [3] [%] | pest or weed control at 250 g/ha [3] [%] | pest or weed control at 15.625 g/ha [4] [%] | pest or weed control at 62.5 g/ha [4] [%] | pest or weed control at 250 g/ha [4] [%] | pest or weed control at 15.625 g/ha [5] [%] | pest or weed control at 62.5 g/ha [5] [%] | pest or weed control at 250 g/ha [5] [%] | pest or weed control at 15.625 g/ha [6] [%] | pest or weed control at 62.5 g/ha [6] [%] | pest or weed control at 250 g/ha [6] [%] | pest or weed control at 15.625 g/ha [7] [%] | pest or weed control at 62.5 g/ha [7] [%] | further results
Cc1c(F)cccc1NC(=O)[C@@H]1C(=O)N(C)C[C@H]1c1cccc(C(C)(C)O)c1 (racemic) [Compound 1819] | 0 | 60 | 90 | 0 | 0 | 60 | 20 | 80 | 90 | 0 | 0 | 0 | 0 | 0 | 20 | 0 | 0 | 10 | 0 | 20 | pest or weed control at 250 g/ha [7]: 80%; plant injury at 15.625 g/ha (corn (Zea mays) [8]): 0%; plant injury at 62.5 g/ha (corn (Zea mays) [8]): 0%; plant injury at 250 g/ha (corn (Zea mays) [8]): 20%; pest or weed control at 15.625 g/ha [9]: 0%; pest or weed control at 62.5 g/ha [9]: 40%; pest or weed control at 250 g/ha [9]: 80%; pest or weed control at 15.625 g/ha [10]: 0%; pest or weed control at 62.5 g/ha [10]: 0%; pest or weed control at 250 g/ha [10]: 50%; pest or weed control at 15.625 g/ha [11]: 0%; pest or weed control at 62.5 g/ha [11]: 0%; pest or weed control at 250 g/ha [11]: 10%; pest or weed control at 15.625 g/ha [12]: 0%; pest or weed control at 62.5 g/ha [12]: 0%; pest or weed control at 250 g/ha [12]: 0%
CCS(=O)(=O)c1ccccc1NC(=O)[C@H]1C(=O)N(C)C[C@@H]1c1ccc(C(F)(F)F)cc1 (racemic) [Compound 1664] | 0 | 40 | 80 | 0 | 0 | 80 | 30 | 70 | 90 | 0 | 0 | 0 | 0 | 20 | 100 | 0 | 0 | 20 | 0 | 60 | pest or weed control at 250 g/ha [7]: 70%; plant injury at 15.625 g/ha (corn (Zea mays) [8]): 0%; plant injury at 62.5 g/ha (corn (Zea mays) [8]): 40%; plant injury at 250 g/ha (corn (Zea mays) [8]): 80%; pest or weed control at 15.625 g/ha [9]: 60%; pest or weed control at 62.5 g/ha [9]: 80%; pest or weed control at 250 g/ha [9]: 80%; pest or weed control at 15.625 g/ha [10]: 0%; pest or weed control at 62.5 g/ha [10]: 20%; pest or weed control at 250 g/ha [10]: 30%; pest or weed control at 15.625 g/ha [11]: 20%; pest or weed control at 62.5 g/ha [11]: 80%; pest or weed control at 250 g/ha [11]: 80%; pest or weed control at 15.625 g/ha [12]: 0%; pest or weed control at 62.5 g/ha [12]: 10%; pest or weed control at 250 g/ha [12]: 20%
